Read-outs that look alike come from different tables or passages of the source. Non-standard residues stand in square brackets, D forms with d. Residues, ends and D or L forms follow the SMILES beside them. pGlu = O=C1CC[C@@H](C(=O)O)N1; azaGly = NNC(=O)O
Key:
[1] = system: human placental GnRH receptor; test: Placental GnRH receptor binding, radiolabeled D-Arg(6)-chicken II GnRH-aza-Gly(10)-amide label
Method: The newly synthesized non-mammalian GnRH analogs and other commercially available mammalian GnRH analogs were used in placental receptors binding and enzyme stability study described here. On the basis of these studies, the most receptor potent and enzyme-stable analogs were chosen for further biopotency studies. GnRH receptors were purified from the membrane fractions from placentas. The purification procedure for the placental GnRH receptor was performed using a modification of the method described by Bramley et al., which reference is specifically incorporated herein by reference for the purpose. Addition of enzyme inhibitors for the endogenous C-ase-1 were used as well as agents for receptor stabilization. Initially, receptor-binding assays using ^125I-Buserelin as label were performed. The competitive binding of each of the analogs was studied over a dose range of 10^−11 to 10^−6 M. Incubation was at room temperature and receptor bound label was precipitated with polyethylene glycol. Specific and non-specific binding was determined. The data was subjected to Scatchard analysis. The non-mammalian GnRH analogs' ability to bind to the placental GnRH receptor was compared to that for synthetic mammalian GnRH (SEQ ID NO: 5), Buserelin (SEQ ID NO: 10) and other mammalian analogs. […] This way, the receptor affinity for that analog could be precisely determined. Receptors from three different term placentas were used to study each of these analogs. […] Bramley T A, McPhie C A, Menzies G S 1994 Human placental gonadotropin-releasing hormone (GnRH) binding sites: 111. Changes in GnRH binding levels with stage of gestation. Placenta 15:733-745.
In these and additional studies, placental GnRH receptors were purified from human term placentas after homogenization in 40 mM Tris (pH 7.4) and filtered through cheesecloth, followed by an initial centrifugation at 1,000×g for 10 minutes. The resulting supernatant was, again, centrifuged at 35,000×g for 30 minutes and the membrane pellet was collected and resuspended in Tris buffer with 0.3 M sucrose. The protein concentration was determined. Membranes were stored frozen at −20 C until use. Before use, placental membranes were diluted to 5,000 μg/mL with Tris buffer containing 0.5% BSA and 50 U/mL bacitracin. Placental membranes (100 μL) were used with varying concentrations of mammalian GnRH (SEQ ID NO: 5), Buserelin (SEQ ID NO: 10), chicken II GnRH (SEQ ID NO: 6), D-Arg (6)-chicken II GnRH-des-Gly (10)-ethylamide (SEQ ID NO: 2), or D-Arg (6)-chicken II GnRH-aza-Gly (10)-amide (SEQ ID NO: 2) (100 μL) and either radiolabeled Buserelin (SEQ ID NO: 10) or radiolabeled D-Arg (6)-chicken II GnRH-aza-Gly (10)-amide (SEQ ID NO: 2) (100 μL/tube and iodinated). Following incubation at room temperature for 4 hours, the bound and free hormones were separated using polyethylene glycol precipitation, followed by centrifugation. The binding affinity for each GnRH isoform or analog was calculated using the double reciprocal plot of bound versus free ligand. Each study was done using three different human term placental tissues.

[2] = system: baboon ovarian enzymatic activity
Method: In these studies the enzyme was in the ovarian extract.
In this assay, following incubation of the enzyme and GnRH, with and without the chosen analog, the reaction was stopped by heating and the remaining GnRH substrate was quantified by radioimmunoassay. The product formed is calculated by subtraction, and its inverse plotted against the inverse of the original substrate concentrations to determine the nature of the competition. The Ki was determined by plotting the inverse of the product formed versus the inhibitor used.

binding affinity compared with mammalian GnRH ([1]; analog label): 25 fold
Kd ([1]; placenta 2 membrane preparation, read-out: affinity constant (Ks)): 68 nM
Kd ([1]; three placental membrane preparations, read-out: average binding affinity): 93 ± 23 nM
enhancement of affinity when the analog is used as label ([1]; versus Buserelin label): 2 fold
stability compared with mammalian GnRH [2]: more than 50 times
Ki ([2]; competition with degradation of mammalian GnRH): ≥ 1500 nM
SMILES: N=C(N)NCCC[C@@H](NC(=O)[C@H](Cc1c[nH]cn1)NC(=O)[C@H](CO)NC(=O)[C@H](Cc1c[nH]c2ccccc12)NC(=O)[C@H](Cc1c[nH]cn1)NC(=O)[C@@H]1CCC(=O)N1)C(=O)N[C@@H](Cc1c[nH]c2ccccc12)C(=O)N[C@@H](Cc1ccc(O)cc1)C(=O)N1CCC[C@H]1C(=O)NNC(N)=O [D-Arg(6)-chicken II GnRH-aza-Gly(10)-amide] ([pGlu]HWSH[dR]WYP[azaGly]-NH2)
